According to patent publication US11299515B2, “Optimized peptides for targeting human nerves and their use in image guided surgery, diagnostics and therapeutic” (The Regents of the University of California, priority 2017, dated 2022):

What was measured:
[1] = test system: human sural nerve; assay: Topical application of FAM-labelled peptides on human nerve sections; assay type: binding; details: for normalized average signal intensity (normalized to FAM-HNP401): 100 μM FAM labelled, human sural nerve sections; for binding / contrast among peptides and controls screened on human nerve: 100 μM topical, sural nerve and temporalis muscle
From the text: To determine the affinity of phage selected peptides for binding to human nerve they were chemically synthesized by solid-phase synthesis and labeled with fluorescein at the C-terminus via a GGC linker. Peptides were topically applied to sectioned human sural nerve and human temporalis muscle to determine nerve to muscle contrast. […] To confirm binding and contrast of HNP401 for additional nerve types binding was compared in nerve and muscle with both HNP401 and NP41 on facial brachial plexus nerve (FIG. 9). […] FAM-HNP401 was additionally tested topically on ex-vivo tissue for labeling of mouse facial nerve with surrounding muscle (FIG. 10, J-M).
To test the affinity of selected phage display peptides for binding to human nerves, they were chemically synthesized by solid-phase synthesis and labeled with fluorescein at the C-terminus. Peptides were topically applied to sections of surgically harvested human sural nerve and temporalis muscle to determine nerve to muscle contrast for selected peptides and controls (FIG. 23). […] To quantify differential binding to nerve versus muscle, fluorescence signal intensity was measured for ROIs from the perineurium of select nerves and human temporalis muscle.
Human sural nerve, antebrachial nerve and laryngeal nerve and temporalis muscle were obtained under IRB protocol number 130837 for Dr. Quyen Nguyen. Human peripheral nerves (typically sural) were obtained from patients undergoing nerve resection procedures. Human nerves from prostate gland of two patients were acquired under Moores Cancer Centre Biorepository IRB protocol number 090401. Tissue were sectioned and mounted on glass slides or Cryojane tape. Tissue sections were placed in a humidifier chamber for 30 min before application of the peptide solution. Peptides were diluted to appropriate concentration in 0.5×HBSS prior to topical application. 50 μl of peptide solution of with known concentration (1 μM to 375 μM) were applied to 10 μm nerve sections on tape or slides and incubated for 30 minutes in a humidifier chamber. After incubation with peptide nerve sections were washed with twice with 0.5×HBSS and once with 1×PBS. A cover-slip was applied and slides were imaged immediately on either a Zeiss Lumar dissecting scope of Nikon A1 confocal microscope. For confocal imaging tissue sections of 10 μm thickness were imaged with 488 nm laser excitation 515 (25) and a 10× air objective and a […] size. For immunohistochemistry the confocal Images were acquired with a 20× air objective at 0.4 μm/pixel.
Image J was used to analyze and compare images acquired using the confocal microscope and the Lumar dissecting scope. For each experimental set where probes were compared, we kept the acquisition parameters identical so as to directly compare the data obtained. […] All raw image files for a given experimental cohort were loaded at the same time into Image J as 16-bit tiff images. We then levelled the image for tissue treated with FAM-HNP401. Once these levels were set, the settings are propagated to all images in one step using Image J. The brightest image is set as the benchmark for all other images in the cohort to avoid saturating when the leveling is propagated.

[2] = Fluorescent plate reader assay of quenching by food dyes
From the text: FIG. 21: Food dyes efficiently quench FAM-NP41 bladder fluorescence. A fluorescent plate reader assay was used to show dose dependent quenching of FAM-NP41 fluorescence. Erythrosine extra bluish (Santa Cruz Biotechnology, Inc.) was the most efficient quencher with >80% quenching at 2.5 times dye to fluorescein ratio and >95% quenching at 5× dye to fluorescein ratio (A). Other food dyes tested included Allura Red and Sunset Yellow. To test for quenching in-vivo we administered, by direct iv injection, 50 mg/kg MW 879.76 (^˜1.5 μmoles per 25 gm mouse) to mice that had been injected with 150 nmoles of FAM-NP41 2 hours prior. This represents approximately a 10× dye to FAM-NP41 dose. Some bladder fluorescence remained after imaging so additional dye (30 μl, 10 mM Erythrosin extra bluish) was injected directly into the bladder. Images are shown for mouse bladder with no dye quencher (B) and addition of Erythrosine extra bluish (intravenous and intra bladder) (C) with bladder fluorescence quench to near background level. Dye would likely not be needed if this method was used for human patients as bladder catheterization in patients could be started as FAM-NP41 is administered so bladder fluorescence could be washed out.

[3] = test system: sciatic nerve; assay type: in vivo, mice
Description: Either 150 or 450 nmoles of fluorescein labeled synthetic peptides were injected intravenously into mice. After a 2 hour waiting period for washout of nonspecific binding, mice were anesthetized and skin incisions were made over the dorsal surface of the hind legs to expose the sciatic nerve. Brightfield and fluorescent images were obtained with a dissecting microscope using Metamorph software (FIG. 1). Quantitation of fluorescence of nerves and adjacent non-nerve tissue was performed with Image J (FIG. 2). Peptides were also topically applied to human nerve sections. Nerves were freshly frozen in OTC prior to sectioning. Peptides were topically applied at concentration at 300 uM with images being shown for HNP401, HNP402, HNP404 and previous reported nerve binding peptides NP41 (FIG. 3)). Also shown are images for variants HNP301 ([…]) and NP124. NP713 was also tested and has not reported in a publication. NP713, is a derivative of NP41 with sequence […] that was enriched after 7 rounds of selection against mouse tissue, and was also found after 4 rounds of selection against human tissue. […] All D-amino acid controls for NP-41 and NP713 and non peptide conjugated carboxyfluorescein, are also shown. […] HNP401 was then tested for labeling of rat sciatic and rat prostate cavernosal nerve in-vivo. […] FIGS. 6 and 7 show in-vivo labeling of rat prostate cavernosal nerve with comparison to white light visualization.
Following anesthesia with intra-peritoneal injection of ketamine (80 mg/kg) and midazolam (40 mg/kg), FAM-NP41 or its variants were administered into mice retro-orbitally. After a washout period of 2-4 hours, the animals were anesthetized with ketamine (50 mg/ml) and xylazine (20 mg/ml). The bladder and prostate were exposed through a midline abdominal incision. The autonomic nerve along the cavernosal vessel in the prostate was imaged and recorded using a custom-made surgical imaging system. This system is a modified from Olympus MVX10 scope capable of hi-resolution fluorescence, RGB reflectance and realtime overlay with zoom from 0.6 to 5.7 cm field of view. Image) was used for quantitative analysis of nerve contrast for each peptide dye conjugate tested. Images of autonomic nerve in prostate were selected from the recorded files and magnified 300-400% prior to selection of ROI and measurement. Nerves and adjacent non-nerve tissues ROIs were hand-selected using polygonal selection tool at the same location from both of reflectance and fluorescence images. The mean and standard deviation of the pixel intensities within the selected areas were compared for nerves (mean=In, SD=σn) and adjacent background tissue (mean=Ib, SD=σb). Nerve to non-nerve contrast was calculated after background subtraction with formula |In−Ib|/(σn^2+σm^2)^0.5. For imaging the nerves in the prostate gland of male rats peptide dye conjugate were injected retro-orbitally. FAM-HNP401 was injected at a concentration of 13 mgs/kg followed by imaging after 15 minutes or alternatively a dose of 52 mgs/kg was used with imaging after 3 hours. Live animal surgery was performed under a ketamine-xylazine cocktail according to IACUC protocol. Sterile technique was used to expose the prostate; bladder was drained with a small syringe and sutured. The surgical field was washed with sterile saline prior to imaging. Mann-Whitney test was used to analyze data for both mice and rats to compare nerve intensity and nerve to non-nerve contrast between white light reflectance and fluorescence.

[4] = test system: autonomic nerves within the prostate; assay: In-vivo imaging of autonomic nerves within the prostate of mice; details: rodent models
Description: To visualize the autonomic nerves within the prostate of mice, NP41 peptide conjugated to fluorescein (FAM-NP41) was injected intravenously followed by imaging of prostate and surrounding tissue after surgical resection. Strong fluorescence from dye that rapidly accumulates in the bladder hindered visualization of the nerves within the prostate. To enhance visualization the bladder was surgically drained of urine and sutured prior to imaging. The urethra, an anatomically distinct structure, is never emptied of urine as the mice are alive for the duration of the experiment, resulting in a continuous passage of urine carrying metabolized peptide-dye to the bladder […]. […] To quantify nerve detection a total of 10 mice were injected with 600 nmoles FAM-NP41 and signal intensity was measured for nerve versus adjacent non-nerve tissue using both fluorescence and white light reflectance. Values to the right of the line indicate that there is improved visualization with fluorescence compared to reflected light. […]
Following anesthesia with intra-peritoneal injection of ketamine (80 mg/kg) and midazolam (40 mg/kg), FAM-NP41 or its variants were administered into mice retro-orbitally. […] The autonomic nerve along the cavernosal vessel in the prostate was imaged and recorded using a custom-made surgical imaging system. […]

[5] = test system: sciatic nerve; details: live mice, reference [22]; cited from earlier work
[6] = test system: autonomic nerve within the prostate; assay: In-vivo imaging of autonomic nerve within the prostate of rats; details: rat prostate cavernosal nerve, live rats

Compound: PWEEPYYVVKKSS [HNP401-N-4, tested FAM labelled]
- normalized average signal intensity (normalized to FAM-HNP401) [1]: 0.56±0.18

Compound: O.O=C([O-])c1ccccc1-c1c2cc(I)c(=O)c(I)c-2oc2c(I)c([O-])c(I)cc12.[Na+].[Na+] [Erythrosine extra bluish]
- quenching of FAM-NP41 fluorescence ([2]; 2.5 times dye to fluorescein ratio): > 80%
- quenching of FAM-NP41 fluorescence ([2]; 5× dye to fluorescein ratio): > 95%

Compound: SGQVPWEEPYYVVKK [tested FAM labelled]
- effect of terminal deletion on binding ([1]; removal of C-terminal serine): tolerated

Compound: NTQTLAKAPEHT [NP41, reference compound]
- contrast (nerve fluorescent intensity/muscle fluorescent intensity) ([3]; 450 nmols, FAM-labelled peptide, living wild type mice, FIG. 2): 6.7 fold
- washout from nerve ([3]; mouse, in vivo): little remaining signal after 24 hours
- average increase in nerve to non-nerve signal, fluorescence vs white light reflectance [4]: 17%
- time to almost complete wash out after systemic injection [5]: ≤ 24 h

Compound: EEPYYVVKKSS [HNP401-N-6, tested FAM labelled]
- normalized average signal intensity (normalized to FAM-HNP401) [1]: 1.0±0.34

Compound: PYYVVKKSS [HNP401-N-8, tested FAM labelled]
- normalized average signal intensity (normalized to FAM-HNP401) [1]: 0.98±0.31

Compound: carboxyfluorescein [reference compound]
- binding / contrast among peptides and controls screened on human nerve [1]: only weak non-specific binding
- binding / contrast among peptides and controls screened on human nerve ([1]; listed as Carboxyfluorescein): low signal and non-specific binding

Compound: SHSSEFPRSWDMETN [HNP301]
- contrast for prostate nerve labeling compared to HNP401 [6]: not showing as much contrast

Compound: QVPWEEPYYVVKKSS [HNP401-N-2, tested FAM labelled]
- average signal intensity (nerve binding of deletion variants) ([1]; 100 uM FAM labelled, human nerve sections, n=5): 1498.73 (+/−517.63)
- normalized average signal intensity (normalized to FAM-HNP401) [1]: 2.02±0.65
- Normalized nerve to temporalis muscle contrast, increase with respect to FAM-HNP401 ([1]; human sural nerve vs temporalis muscle): 3 fold
